Results published in PubChem BioAssay (NCI).
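Assay format: 96-well plates, 48-hour exposure. TGI marks complete inhibition of growth.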

Tests used:
Assay in all cases: DTP human tumour cell line panel, 48 h
[1] = test system: MOLT-4 leukemia
[2] = test system: RXF-631 renal
[3] = test system: UACC-62 melanoma
[4] = test system: KM12 colon
[5] = test system: DLD-1 colon
[6] = test system: HT29 colon
[7] = test system: HCT-15 colon
[8] = test system: CCRF-CEM leukemia
[9] = test system: COLO 205 colon
[10] = test system: M19-MEL melanoma
[11] = test system: EKVX NSCLC
[12] = test system: U251 CNS
[13] = test system: 786-0 renal
[14] = test system: OVCAR-8 ovarian
[15] = test system: HOP-62 NSCLC
[16] = test system: IGROV1 ovarian
[17] = test system: M14 melanoma
[18] = test system: ACHN renal
[19] = test system: DMS 114 small cell lung
[20] = test system: OVCAR-4 ovarian
[21] = test system: SN12C renal
[22] = test system: SNB-19 CNS
[23] = test system: HCC-2998 colon
[24] = test system: SW-620 colon
[25] = test system: CAKI-1 renal
[26] = test system: HOP-92 NSCLC
[27] = test system: RXF 393 renal
[28] = test system: A498 renal
[29] = test system: UACC-257 melanoma
[30] = test system: SF-539 CNS
[31] = test system: SK-MEL-2 melanoma
[32] = test system: KM20L2 colon
[33] = test system: A549 NSCLC
[34] = test system: NCI-H460 lung
[35] = test system: SNB-75 CNS
[36] = test system: HL-60(TB) leukemia
[37] = test system: XF 498 CNS
[38] = test system: UO-31 renal
[39] = test system: RPMI-8226 leukemia
[40] = test system: LXFL 529 NSCLC
[41] = test system: DMS 273 small cell lung
[42] = test system: HOP-18 NSCLC
[43] = test system: SF-295 CNS
[44] = test system: HCT-116 colon
[45] = test system: SNB-78 CNS
[46] = test system: SR leukemia
[47] = test system: NCI-H23 lung
[48] = test system: SK-MEL-28 melanoma
[49] = test system: OVCAR-3 ovarian
[50] = test system: SK-OV-3 ovarian
[51] = test system: K-562 leukemia
[52] = test system: NCI-H522 lung
[53] = test system: NCI-H226 lung
[54] = test system: OVCAR-5 ovarian
[55] = test system: MALME-3M melanoma
[56] = test system: SK-MEL-5 melanoma
[57] = test system: TK-10 renal
[58] = test system: SF-268 CNS
[59] = test system: LOX IMVI melanoma

Measured: TGI

COc1c(CC(=O)c2ccccc2)c2ccccc2n1C(C)=O
not listed: [52] | [53] | [54] | [55] | [56] | [57] | [58] | [59]
> 100 µM: all other assays above

O=C1c2ccccc2C(=O)N1C/C=N/NS(=O)(=O)c1ccc2ccccc2c1
not listed: [19] | [26] | [27] | [48] | [58] | [59]
> 100 µM: all other assays above

C/C(=N\N(C)C)C(CN1CCCCC1)C(c1ccccc1)c1c(O)c2ccccc2oc1=O (stereo unspecified)
not listed: [23] | [26]
> 100 µM: all other assays above
